How the values were obtained:
Experiment in all cases: Test B preemergence/postemergence greenhouse plant response rating 0 to 10
[1] = system: barley; assay type: in vivo, Hordeum vulgare; details: for Plant response rating, Barley: 0 to 10 scale
Summary of the method: (§1)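 Both application timings were run together: seeds got compound preemergence, and established seedlings (two to eighteen cm) got it postemergence. Non-phytotoxic solvent carried the chemical. Ratings are visual, versus controls, at twelve to sixteen days.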

[2] = system: bedstraw; assay type: in vivo, Galium aparine; details: for Plant response rating, Bedstraw: 0 to 10 scale
Summary of the method: as §1

[3] = system: blackgrass; assay type: in vivo, Alopecurus myosuroides; details: for Plant response rating, Blackgrass: 0 to 10 scale
Summary of the method: as §1

[4] = system: cheatgrass; assay type: in vivo, Bromus secalinus; details: for Plant response rating, Cheatgrass: 0 to 10 scale
Summary of the method: as §1

[5] = system: cocklebur; assay type: in vivo, Xanthium pensylvanicum; details: for Plant response rating, Cocklebur: 0 to 10 scale
Summary of the method: as §1

[6] = system: cotton; assay type: in vivo, Gossypium hirsutum; details: for Plant response rating, Cotton: 0 to 10 scale
Summary of the method: as §1

[7] = system: rice; assay type: in vivo, Oryza sativa; details: 0 to 10 scale
Summary of the method: as §1

[8] = system: wild buckwheat; assay type: in vivo, Polygonum convolvulus; details: 0 to 10 scale
Summary of the method: as §1

| Compound | Plant response rating (0 to 10 scale), Barley ([1]; POSTEMERGENCE, Rate 50 g/ha) | Plant response rating, Barley ([1]; POSTEMERGENCE, Rate 200 g/ha) | Plant response rating, Barley ([1]; PREEMERGENCE, Rate 50 g/ha) | Plant response rating, Barley ([1]; Rate 200 g/ha, PREEMERGENCE) | Plant response rating (0 to 10 scale), Bedstraw ([2]; POSTEMERGENCE, Rate 50 g/ha) | Plant response rating, Bedstraw ([2]; POSTEMERGENCE, Rate 200 g/ha) | Plant response rating, Bedstraw ([2]; Rate 200 g/ha, PREEMERGENCE) | Plant response rating (0 to 10 scale), Blackgrass ([3]; POSTEMERGENCE, Rate 50 g/ha) | Plant response rating, Blackgrass ([3]; POSTEMERGENCE, Rate 200 g/ha) | Plant response rating, Blackgrass ([3]; PREEMERGENCE, Rate 50 g/ha) | Plant response rating, Blackgrass ([3]; Rate 200 g/ha, PREEMERGENCE) | Plant response rating (0 to 10 scale), Cheatgrass ([4]; POSTEMERGENCE, Rate 50 g/ha) | Plant response rating, Cheatgrass ([4]; POSTEMERGENCE, Rate 200 g/ha) | Plant response rating, Cheatgrass ([4]; PREEMERGENCE, Rate 50 g/ha) | Plant response rating, Cheatgrass ([4]; Rate 200 g/ha, PREEMERGENCE) | Plant response rating (0 to 10 scale), Cocklebur ([5]; POSTEMERGENCE, Rate 50 g/ha) | Plant response rating, Cocklebur ([5]; POSTEMERGENCE, Rate 200 g/ha) | Plant response rating, Cocklebur ([5]; PREEMERGENCE, Rate 50 g/ha) | Plant response rating, Cocklebur ([5]; Rate 200 g/ha, PREEMERGENCE) | Plant response rating (0 to 10 scale), Cotton ([6]; POSTEMERGENCE, Rate 50 g/ha) | further results |
| --- | --- | --- | --- | --- | --- | --- | --- | --- | --- | --- | --- | --- | --- | --- | --- | --- | --- | --- | --- | --- | --- |
| Fc1cc(Cl)c(OCc2ccccc2)cc1-c1nn2c(c1Cl)CCCC2 [Compound 22] | 4 | 5 | 0 | 0 | 8 | 8 | 10 | 3 | 3 | 0 | 5 | 3 | 4 | 0 | 3 | 7 | 8 | 0 | 1 | 10 | Plant response rating, Cotton ([6]; POSTEMERGENCE, Rate 200 g/ha): 10; Plant response rating, Cotton ([6]; PREEMERGENCE, Rate 50 g/ha): 2; Plant response rating, Cotton ([6]; Rate 200 g/ha, PREEMERGENCE): 4; Plant response rating, Rice ([7]; POSTEMERGENCE, Rate 50 g/ha): 4; Plant response rating, Rice ([7]; POSTEMERGENCE, Rate 200 g/ha): 5; Plant response rating, Rice ([7]; PREEMERGENCE, Rate 50 g/ha): 0; Plant response rating, Rice ([7]; Rate 200 g/ha, PREEMERGENCE): 2; Plant response rating, Wild buckwheat ([8]; POSTEMERGENCE, Rate 50 g/ha): 10; Plant response rating, Wild buckwheat ([8]; POSTEMERGENCE, Rate 200 g/ha): 10; Plant response rating, Wild buckwheat ([8]; PREEMERGENCE, Rate 50 g/ha): 2; Plant response rating, Wild buckwheat ([8]; Rate 200 g/ha, PREEMERGENCE): 5 |
| Fc1cc(Cl)c(OC2CCCC2)cc1-c1nn2c(c1Cl)CCCC2 [Compound 24] | 4 | 4 | 0 | 0 | 6 | 7 | 5 | 2 | 6 | 2 | 8 | 3 | 5 | 0 | 4 | 8 | 9 | 0 | 1 | 10 | Plant response rating, Bedstraw ([2]; PREEMERGENCE, Rate 50 g/ha): 3; Plant response rating, Cotton ([6]; POSTEMERGENCE, Rate 200 g/ha): 10; Plant response rating, Cotton ([6]; PREEMERGENCE, Rate 50 g/ha): 3; Plant response rating, Cotton ([6]; Rate 200 g/ha, PREEMERGENCE): 8; Plant response rating, Rice ([7]; POSTEMERGENCE, Rate 50 g/ha): 5; Plant response rating, Rice ([7]; POSTEMERGENCE, Rate 200 g/ha): 5; Plant response rating, Rice ([7]; PREEMERGENCE, Rate 50 g/ha): 0; Plant response rating, Rice ([7]; Rate 200 g/ha, PREEMERGENCE): 0; Plant response rating, Wild buckwheat ([8]; POSTEMERGENCE, Rate 50 g/ha): 10; Plant response rating, Wild buckwheat ([8]; POSTEMERGENCE, Rate 200 g/ha): 10; Plant response rating, Wild buckwheat ([8]; PREEMERGENCE, Rate 50 g/ha): 3; Plant response rating, Wild buckwheat ([8]; Rate 200 g/ha, PREEMERGENCE): 5 |
| CCCOc1cc(-c2nn3c(c2Cl)CCCC3)c(F)cc1Cl [Compound 23] | 3 | 3 | 0 | 0 | 7 | 9 | 5 | 6 | 6 | 6 | 7 | 6 | 8 | 4 | 6 | 8 | 10 | 0 | 8 | 10 | Plant response rating, Bedstraw ([2]; PREEMERGENCE, Rate 50 g/ha): 5; Plant response rating, Cotton ([6]; POSTEMERGENCE, Rate 200 g/ha): 10; Plant response rating, Cotton ([6]; PREEMERGENCE, Rate 50 g/ha): 5; Plant response rating, Cotton ([6]; Rate 200 g/ha, PREEMERGENCE): 5; Plant response rating, Rice ([7]; POSTEMERGENCE, Rate 50 g/ha): 4; Plant response rating, Rice ([7]; POSTEMERGENCE, Rate 200 g/ha): 6; Plant response rating, Rice ([7]; PREEMERGENCE, Rate 50 g/ha): 0; Plant response rating, Rice ([7]; Rate 200 g/ha, PREEMERGENCE): 2; Plant response rating, Wild buckwheat ([8]; POSTEMERGENCE, Rate 50 g/ha): 10; Plant response rating, Wild buckwheat ([8]; POSTEMERGENCE, Rate 200 g/ha): 10; Plant response rating, Wild buckwheat ([8]; PREEMERGENCE, Rate 50 g/ha): 0; Plant response rating, Wild buckwheat ([8]; Rate 200 g/ha, PREEMERGENCE): 10 |
| CCS(=O)(=O)Oc1cc(-c2nn3c(c2Cl)CCCC3)c(F)cc1Cl [Compound 25] | 4 | 5 | 0 | 0 | 9 | 9 | 10 | 2 | 2 | 0 | 3 | 3 | 3 | 0 | 3 | 7 | 8 | 0 | 1 | 10 | Plant response rating, Bedstraw ([2]; PREEMERGENCE, Rate 50 g/ha): 5; Plant response rating, Cotton ([6]; POSTEMERGENCE, Rate 200 g/ha): 10; Plant response rating, Cotton ([6]; PREEMERGENCE, Rate 50 g/ha): 4; Plant response rating, Cotton ([6]; Rate 200 g/ha, PREEMERGENCE): 5; Plant response rating, Rice ([7]; POSTEMERGENCE, Rate 50 g/ha): 4; Plant response rating, Rice ([7]; POSTEMERGENCE, Rate 200 g/ha): 9; Plant response rating, Rice ([7]; PREEMERGENCE, Rate 50 g/ha): 0; Plant response rating, Rice ([7]; Rate 200 g/ha, PREEMERGENCE): 0; Plant response rating, Wild buckwheat ([8]; POSTEMERGENCE, Rate 50 g/ha): 10; Plant response rating, Wild buckwheat ([8]; POSTEMERGENCE, Rate 200 g/ha): 10; Plant response rating, Wild buckwheat ([8]; PREEMERGENCE, Rate 50 g/ha): 8; Plant response rating, Wild buckwheat ([8]; Rate 200 g/ha, PREEMERGENCE): 10 |
| CC(C)Oc1cc(-c2nn3c(c2Cl)CCCC3)c(F)cc1Cl [Compound 21] | 6 | 4 | 0 | 2 | 6 | 9 | 9 | 3 | 5 | 6 | 7 | 5 | 8 | 4 | 6 | 8 | 10 | 2 | 2 | 10 | Plant response rating, Bedstraw ([2]; PREEMERGENCE, Rate 50 g/ha): 2; Plant response rating, Cotton ([6]; POSTEMERGENCE, Rate 200 g/ha): 10; Plant response rating, Cotton ([6]; PREEMERGENCE, Rate 50 g/ha): 2; Plant response rating, Cotton ([6]; Rate 200 g/ha, PREEMERGENCE): 7; Plant response rating, Rice ([7]; POSTEMERGENCE, Rate 50 g/ha): 5; Plant response rating, Rice ([7]; POSTEMERGENCE, Rate 200 g/ha): 6; Plant response rating, Rice ([7]; PREEMERGENCE, Rate 50 g/ha): 0; Plant response rating, Rice ([7]; Rate 200 g/ha, PREEMERGENCE): 2; Plant response rating, Wild buckwheat ([8]; POSTEMERGENCE, Rate 50 g/ha): 10; Plant response rating, Wild buckwheat ([8]; POSTEMERGENCE, Rate 200 g/ha): 10; Plant response rating, Wild buckwheat ([8]; PREEMERGENCE, Rate 50 g/ha): 7; Plant response rating, Wild buckwheat ([8]; Rate 200 g/ha, PREEMERGENCE): 9 |
| Clc1ccc(-c2nc3n(c2Cl)CCC=C3)c(Cl)c1 [Compound 1] | 3 | 3 | 0 | 0 | 3 | 3 | 0 | 0 | 1 | 0 | 0 | 2 | 2 | 0 | 0 | 4 | 4 | 0 | 0 | 7 | Plant response rating, Bedstraw ([2]; PREEMERGENCE, Rate 50 g/ha): 0; Plant response rating, Cotton ([6]; POSTEMERGENCE, Rate 200 g/ha): 8; Plant response rating, Cotton ([6]; PREEMERGENCE, Rate 50 g/ha): 0; Plant response rating, Cotton ([6]; Rate 200 g/ha, PREEMERGENCE): 0; Plant response rating, Rice ([7]; POSTEMERGENCE, Rate 50 g/ha): 4; Plant response rating, Rice ([7]; POSTEMERGENCE, Rate 200 g/ha): 3; Plant response rating, Rice ([7]; PREEMERGENCE, Rate 50 g/ha): 0; Plant response rating, Rice ([7]; Rate 200 g/ha, PREEMERGENCE): 0; Plant response rating, Wild buckwheat ([8]; POSTEMERGENCE, Rate 50 g/ha): 5; Plant response rating, Wild buckwheat ([8]; POSTEMERGENCE, Rate 200 g/ha): 9; Plant response rating, Wild buckwheat ([8]; Rate 200 g/ha, PREEMERGENCE): 0 |

From patent US6358885B1, “Substituted phenylheterocyclic herbicides” (Mississippi State University, priority 1992, dated 2002)
